Here are results for 26 compounds from patent publication US20250002471A1 (Gilead Sciences, Inc., priority 2020, published 2025).

The structures appear in SMILES notation. pEC50: −log10 of the molar value.

In test [1] the target is T1, TLR9 (Homo sapiens, UniProt Q9NR96).
T1 construct: lymphocytes, monocytes and dendritic cells that express TLR7, TLR8 and TLR9; endogenous in cells; host or cells: human PBMCs from healthy donors
T1 sequence (Q9NR96 26-1032): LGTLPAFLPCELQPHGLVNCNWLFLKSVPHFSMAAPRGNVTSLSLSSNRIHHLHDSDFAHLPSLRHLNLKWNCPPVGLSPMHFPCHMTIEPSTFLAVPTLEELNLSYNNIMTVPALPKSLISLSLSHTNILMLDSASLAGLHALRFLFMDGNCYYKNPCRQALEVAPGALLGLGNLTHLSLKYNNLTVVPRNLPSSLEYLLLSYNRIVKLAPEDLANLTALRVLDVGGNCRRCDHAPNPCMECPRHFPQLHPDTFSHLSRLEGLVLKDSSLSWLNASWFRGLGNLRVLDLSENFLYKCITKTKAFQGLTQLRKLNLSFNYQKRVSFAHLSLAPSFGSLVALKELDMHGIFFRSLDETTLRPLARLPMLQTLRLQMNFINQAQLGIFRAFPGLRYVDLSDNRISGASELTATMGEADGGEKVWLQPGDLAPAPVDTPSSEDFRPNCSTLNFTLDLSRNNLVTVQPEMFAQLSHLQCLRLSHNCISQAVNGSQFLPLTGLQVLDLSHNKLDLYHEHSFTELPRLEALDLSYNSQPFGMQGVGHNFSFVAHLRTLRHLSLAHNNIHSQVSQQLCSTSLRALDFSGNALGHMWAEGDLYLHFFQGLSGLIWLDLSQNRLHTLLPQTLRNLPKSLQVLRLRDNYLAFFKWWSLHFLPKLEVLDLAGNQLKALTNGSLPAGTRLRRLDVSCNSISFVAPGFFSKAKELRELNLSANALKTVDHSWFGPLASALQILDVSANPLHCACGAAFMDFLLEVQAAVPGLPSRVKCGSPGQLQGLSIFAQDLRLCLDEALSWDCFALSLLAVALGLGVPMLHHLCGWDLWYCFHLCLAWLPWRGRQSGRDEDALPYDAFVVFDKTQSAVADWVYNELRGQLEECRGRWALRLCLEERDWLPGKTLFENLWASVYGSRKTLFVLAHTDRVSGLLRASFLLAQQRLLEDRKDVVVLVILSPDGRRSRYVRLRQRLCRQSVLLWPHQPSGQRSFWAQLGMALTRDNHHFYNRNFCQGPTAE
The test can be described thus: Human PBMC cell-based assay, TLR9 agonist ODN-2216 stimulation, cytokine (IL-6 and IFNα) readout. Particulars: human PBMCs, ODN-2216 3 μM, 6 hours; Table 26; read-out: TLR-9 EC50. The text has this: (§1) Human peripheral blood mononuclear cells (PBMCs) consist of lymphocytes, monocytes and dendritic cells that express TLR7, TLR8 and TLR9. These cells respond to TLR7, TLR8 and TLR9 ligand stimulation and produce cytokines and chemokines in vitro and in vivo. Human PBMCs are therefore suitable to be used in a cell-based assay to assess the in vitro potency of a TLR 7, 8, and/or 9 antagonist. The result is expected to be more translatable to the pharmacodynamics response in vivo than cell line-based assays.
(§2) Cryopreserved human PBMCs from healthy donors were thawed and resuspended in RPMI-1640 media with L-glutamine (Corning) supplemented with 10% Fetal Bovine Serum (Hyclone) and 1X Penicillin-Streptomycin (Corning). After counting, the cell density was adjusted to 2 million cells/ml and incubated for 1 hour at 37° C., 5% CO2 for recovery. Following the recovery, the cells were plated by adding 50p per well (100,000 cells) to 384-well cell culture plates (Greiner) containing 250nl of test antagonists in 100% DMSO per well, in a 10 points dose response in quadruplicates. PBMCs were incubated in the presence of test antagonists for one hour at 37° C., 5% CO2 before being stimulated with a TLR7 or TLR9 agonist. GS-986 (Gilead Sciences) was used as the TLR7 agonist at a final concentration of 400 nM. ODN-2216 (InvivoGen) was used as the TLR9 agonist at a final concentration of 3μM. PBMCs were incubated in the presence of the test antagonist and the TLR7 (or TLR9) agonist for an additional 6 hours at 37° C., 5% CO2. At the end of the incubation, the cell culture plates were centrifuged at 500 g for 5 min, and the cell culture supernatant was collected. The level of cytokines (IL-6 and IFNα) in the supernatant was measured by electrochemiluminescence immunoassays (Mesoscale Discovery) following manufacturer's recommended protocols. The level of cytokine measured was plotted against the test antagonist concentration and fitted to a sigmoidal function to determine the EC50, which are shown below in Table 26.

Test [2] addresses T2, TLR7 (Homo sapiens, UniProt Q9NYK1).
T2 construct: lymphocytes, monocytes and dendritic cells that express TLR7, TLR8 and TLR9; endogenous in cells; host or cells: human PBMCs from healthy donors
T2 sequence (Q9NYK1 27-1049): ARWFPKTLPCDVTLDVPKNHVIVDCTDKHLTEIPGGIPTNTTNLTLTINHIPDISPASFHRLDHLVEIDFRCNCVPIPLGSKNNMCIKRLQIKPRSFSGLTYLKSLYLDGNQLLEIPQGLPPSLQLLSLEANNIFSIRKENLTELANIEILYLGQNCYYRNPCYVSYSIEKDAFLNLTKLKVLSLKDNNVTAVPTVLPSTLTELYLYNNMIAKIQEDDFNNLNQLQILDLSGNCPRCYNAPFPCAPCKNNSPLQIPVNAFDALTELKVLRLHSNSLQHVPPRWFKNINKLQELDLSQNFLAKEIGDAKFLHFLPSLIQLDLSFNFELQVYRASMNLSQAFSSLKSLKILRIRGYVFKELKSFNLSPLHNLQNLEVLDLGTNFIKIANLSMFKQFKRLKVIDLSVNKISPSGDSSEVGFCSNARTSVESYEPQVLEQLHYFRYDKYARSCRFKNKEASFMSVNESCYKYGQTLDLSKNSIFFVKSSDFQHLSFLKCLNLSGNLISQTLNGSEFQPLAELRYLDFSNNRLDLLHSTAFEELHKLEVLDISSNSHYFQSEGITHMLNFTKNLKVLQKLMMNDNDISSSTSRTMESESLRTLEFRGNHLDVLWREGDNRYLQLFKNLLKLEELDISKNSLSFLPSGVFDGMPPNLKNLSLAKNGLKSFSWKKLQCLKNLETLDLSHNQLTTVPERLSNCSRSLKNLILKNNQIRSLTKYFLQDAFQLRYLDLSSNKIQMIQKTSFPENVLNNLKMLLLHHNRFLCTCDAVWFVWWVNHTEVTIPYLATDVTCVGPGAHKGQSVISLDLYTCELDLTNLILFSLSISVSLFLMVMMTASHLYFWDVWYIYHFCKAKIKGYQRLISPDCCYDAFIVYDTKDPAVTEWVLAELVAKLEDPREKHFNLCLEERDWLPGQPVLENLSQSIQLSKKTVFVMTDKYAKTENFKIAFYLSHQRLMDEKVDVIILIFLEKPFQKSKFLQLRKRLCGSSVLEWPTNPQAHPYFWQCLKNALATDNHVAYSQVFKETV
The experiment in a line: Human PBMC cell-based assay, TLR7 agonist GS-986 stimulation, cytokine (IL-6 and IFNα) readout. To be noted: human PBMCs, GS-986 400 nM, 6 hours; Table 26; read-out: TLR-7 EC50.
Description: as §1, §2

Regarding `Cc1cc(-c2[nH]c3cc(-c4ccc(N5CCN(C6COC6)CC5)nc4)ccc3c2C)cc(C)n1` [Example 38], the pEC50 (usually −log10 of the EC50, conventionally taken in molar units) in test [1] was 6.42; in test [2] it was 6.56.
For `Cc1cc(-c2[nH]c3cc(-c4ccc(N5CCN(CCN(C)C)CC5)nc4)ccc3c2C)cc(C)n1` [Example 114, 2-(4-(5-(2-(2,6-dimethylpyridin-4-yl)-3-methyl-1H-indol-6-yl)pyridin-2-yl)piperazin-1-yl)-N,N-dimethylethan-1-amine], in that order: 7.44 and 7.67.
For `Cc1cncc(-c2[nH]c3cc(-c4ccc(N5CCNCC5)nc4)ccc3c2C)n1` [Example 98], the pEC50 in test [1] was 5.82; in test [2], 5.95.
For `Cc1cc(-c2[nH]c3cc(-c4ccc(N5CCN(C(=O)[C@@H]6COCCN6)CC5)nc4)ccc3c2C)cc(C)n1` [Example 110] the same measures were 7.20 and 7.49.
Consider `Cc1cc(-c2[nH]c3cc(-c4cnn5c4CNCC5)ccc3c2C)cc(C)n1` [Example 10], for which the pEC50 was 6.41 in test [1] and 6.68 in test [2].
As for `Cc1cc(-c2[nH]c3cc(-c4ccc5c(c4)[nH]c(=O)n5C4CCNCC4)ccc3c2C)cc(C)n1` [Example 187, 6-[2-(2,6-dimethyl-4-pyridyl)-3-methyl-1H-indol-6-yl]-3-(4-piperidyl)-1H-benzimidazol-2-one], the pEC50 in test [1] is 6.33; in test [2], 6.77.
Regarding `Cc1cc(-c2[nH]c3cc(-c4cccc(C(=O)N5CC6CNCC6C5)c4)ccc3c2C)cc(C)n1` (stereo not shown) [Example 123], the pEC50 in test [1] is 6.56; in test [2], 6.43.
On to `Cc1cc(-c2[nH]c3cc(-c4cccc(C(=O)N5CCN6CCC5C6)c4)ccc3c2C)cc(C)n1` (stereo not shown) [Example 127], for which the figures for the pEC50 in test [1] and in test [2] were 7.13 and 7.00, respectively.
For `Cc1cc(-c2[nH]c3cc(-c4cccc5c4CNC5)ccc3c2C)cc(C)n1` [Example 19] the same measures were 6.96 and 6.79.
For `Cc1cc(-c2[nH]c3cc(-c4ccc(N5CCNCC5)nc4)ccc3c2C)cc(C#N)n1` [Example 77], the pEC50 in test [1] was 6.11; in test [2], 7.98.
For the compound `Cc1cc(-c2[nH]c3cc(-c4ccc5[nH]cnc5c4)ccc3c2C)cc(C)n1` [Example 44], the pEC50 was 6.62 in test [1] and 6.92 in test [2].
For `Cc1cc(-c2[nH]c3cc(-c4ccc(N5CCNCC5)nc4)ccc3c2C)ccn1` [Example 73, 3-methyl-2-(2-methylpyridin-4-yl)-6-(6-(piperazin-1-yl)pyridin-3-yl)-1H-indole], in that order: 6.99 and 7.48.
With `Cc1cc(-c2[nH]c3cc(-c4ccc(N5CCC[C@@H](N)C5)nc4)ccc3c2C)cc(C)n1` [Example 25], the pEC50 is 7.41 in test [1] and 8.23 in test [2].
For the compound `Cc1c(-c2ccc(=O)n(C)c2)[nH]c2cc(-c3ccc(N4CCNCC4)nc3)ccc12` [Example 95, 1-methyl-5-(3-methyl-6-(6-(piperazin-1-yl)pyridin-3-yl)-1H-indol-2-yl)pyridin-2(1H)-one], the pEC50 in test [1] is 6.54; in test [2] it was 6.99.
For `Cc1nn(C)cc1-c1[nH]c2cc(-c3ccc(N4CCNCC4)nc3)ccc2c1C` [Example 88], in that order: 5.66 and 6.50.
For `Cc1cc(-c2[nH]c3cc(-c4ccc(C5CCN(CCO)CC5)nc4)ccc3c2C)cc(C)n1` [Example 163], in that order: 7.33 and 7.62.
For `Cc1cc(-c2[nH]c3cc(-c4cnn(C5CCCNC5)c4)ccc3c2C)cc(C)n1` (stereo not shown) [Example 18] the same measures were 7.06 and 7.05.
In the case of `Cc1cc(-c2[nH]c3cc(-c4ccc(N5CCN(C(=O)[C@H]6COCCN6)CC5)nc4)ccc3c2C)cc(C)n1` [Example 111], the pEC50 in test [1] is 7.23; in test [2], 7.25.
For `Cc1cc(-c2[nH]c3cc(-c4cnc5c(c4)CNCC5)ccc3c2C)cc(C)n1` [Example 9], in that order: 7.30 and 7.42.
For `COc1cc(-c2[nH]c3cc(-c4ccc(N5CCNCC5)nc4)ccc3c2C)cc(C)n1` [Example 79], in that order: 6.00 and 7.96.
As for `Cc1cc(-c2[nH]c3cc(-c4ccc(N5CC6(CNCCO6)C5)nc4)ccc3c2C)cc(C)n1` [Example 29], the pEC50 in test [1] was 6.91; in test [2], 7.50.
Turning to `Cc1cc(-c2[nH]c3cc(-c4cccc5c4CCNC5)ccc3c2C)cc(C)n1` [Example 62, 5-(2-(2,6-dimethylpyridin-4-yl)-3-methyl-1H-indol-6-yl)-1,2,3,4-tetrahydroisoquinoline], the pEC50 in test [1] is 6.75; in test [2], 6.22.
For the compound `Cc1cc(-c2[nH]c3cc(-c4ccc(C(=O)N5CC[C@@H](N)C5)cc4)ccc3c2C)cc(C)n1` [Example 124], the figures for the pEC50 in test [1] and in test [2] were 6.96 and 7.26, respectively.
For `Cc1cc(-c2[nH]c3cc(-c4ccc(N5CCN(C(=O)[C@H]6CCCN6C)CC5)nc4)ccc3c2C)cc(C)n1` [Example 109], the values for the pEC50 in test [1] and in test [2] were 7.45 and 7.82, respectively.
For `Cc1cc(-c2[nH]c3cc(-c4ccnc(N5CCN(C)CC5)c4)ccc3c2C)cc(C)n1` [Example 60, 2-(2,6-dimethylpyridin-4-yl)-3-methyl-6-(2-(4-methylpiperazin-1-yl)pyridin-4-yl)-1H-indole] the same measures were 6.96 and 6.57.
For `Cc1cc(-c2[nH]c3cc(-c4ccc5c(c4)CCNC5)ccc3c2C)cc(C)n1` [Example 13], in that order: 7.71 and 6.99.
